Data from ChEMBL document CHEMBL3885861, “Open TG-GATES”.

Organism: Rattus norvegicus
Assay: Open TG-GATES - Regimen: Single
Type: toxicity, organism-based, Sprague-Dawley
Parameters: regimen Single, gender Male, age 6 weeks
Details: in vivo, po, 100 mg/kg, route gavage, dose level Middle; for APTT / Bas / Eos / Fbg / Hb / Ht / Lym / MCH / MCHC / MCV / Mono / Neu / PT / Plat / RBC / Ret / WBC: tissue Blood; for KIDNEY_L / KIDNEY_R / KIDNEY_TOTAL: tissue Kidney; for LIVER: tissue Liver; for A/G / ALP / ALT / AST / BUN / CRE / Ca / Cl / DBIL / GLC / IP / K / LDH / Na / PL / RALB / TBIL / TC / TG / TP / gamma-GTP: tissue Plasma

CCc1oc2ccccc2c1C(=O)c1cc(I)c(O)c(I)c1 [BENZIODARONE]
TERMINAL_BW (3 h): 215.5 g
APTT (3 h): 16.9 s
Bas (3 h): 0%
Eos (3 h): 0.6%
Fbg (3 h): 189.8 mg/dL
Hb (3 h): 13.1 g/dL
Ht (3 h): 39.1%
Lym (3 h): 75.8%
MCH (3 h): 21.8 pg
MCHC (3 h): 33.6%
MCV (3 h): 64.9 fL
Mono (3 h): 8.8%
Neu (3 h): 15%
PT (3 h): 11.9 s
Plat (3 h): 118.7 x10_4/uL
RBC (3 h): 603 x10_4/ul
Ret (3 h): 9.2%
WBC (3 h): 94.2 x10_2/uL
KIDNEY_L (3 h): 1 g
KIDNEY_R (3 h): 1 g
KIDNEY_TOTAL (3 h): 2 g
LIVER (3 h): 10.2 g
A/G (3 h): 2.1
ALP (3 h): 966.8 IU/L
ALT (3 h): 36.6 IU/L
AST (3 h): 69 IU/L
BUN (3 h): 12.6 mg/dL
CRE (3 h): 0.5 mg/dL
Ca (3 h): 10.5 mg/dL
Cl (3 h): 102.4 meq/L
DBIL (3 h): 0.02 mg/dL
GLC (3 h): 201.2 mg/dL
IP (3 h): 9.3 mg/dL
K (3 h): 4.4 meq/L
LDH (3 h): 110 IU/L
Na (3 h): 140.4 meq/L
PL (3 h): 128.6 mg/dL
RALB (3 h): 3.5 g/dL
TBIL (3 h): 0.5 mg/dL
TC (3 h): 73.8 mg/dL
TG (3 h): 52.4 mg/dL
TP (3 h): 5.2 g/dL
gamma-GTP (3 h): 1.8 IU/L
TERMINAL_BW (6 h): 210.6 g
APTT (6 h): 16.8 s
Bas (6 h): 0%
Eos (6 h): 1%
Fbg (6 h): 217.8 mg/dL
Hb (6 h): 13.6 g/dL
Ht (6 h): 40.7%
Lym (6 h): 73.2%
MCH (6 h): 21.7 pg
MCHC (6 h): 33.3%
MCV (6 h): 65.1 fL
Mono (6 h): 9.2%
Neu (6 h): 16.4%
PT (6 h): 11.8 s
Plat (6 h): 109.1 x10_4/uL
RBC (6 h): 625.8 x10_4/ul
Ret (6 h): 10.1%
WBC (6 h): 113.1 x10_2/uL
KIDNEY_L (6 h): 0.9 g
KIDNEY_R (6 h): 0.9 g
KIDNEY_TOTAL (6 h): 1.9 g
LIVER (6 h): 9.7 g
A/G (6 h): 2
ALP (6 h): 826.8 IU/L
ALT (6 h): 32.6 IU/L
AST (6 h): 61.2 IU/L
BUN (6 h): 12.4 mg/dL
CRE (6 h): 0.5 mg/dL
Ca (6 h): 10.7 mg/dL
Cl (6 h): 103.2 meq/L
DBIL (6 h): 0.02 mg/dL
GLC (6 h): 182.4 mg/dL
IP (6 h): 9.9 mg/dL
K (6 h): 4.6 meq/L
LDH (6 h): 108.4 IU/L
Na (6 h): 140.4 meq/L
PL (6 h): 133 mg/dL
RALB (6 h): 3.6 g/dL
TBIL (6 h): 0.3 mg/dL
TC (6 h): 74.4 mg/dL
TG (6 h): 77.8 mg/dL
TP (6 h): 5.4 g/dL
gamma-GTP (6 h): 1.6 IU/L
TERMINAL_BW (9 h): 209.5 g
APTT (9 h): 16.8 s
Bas (9 h): 0%
Eos (9 h): 1%
Fbg (9 h): 202.2 mg/dL
Hb (9 h): 13.6 g/dL
Ht (9 h): 40.8%
Lym (9 h): 76.4%
MCH (9 h): 21.3 pg
MCHC (9 h): 33.3%
MCV (9 h): 63.9 fL
Mono (9 h): 7.4%
Neu (9 h): 15.4%
PT (9 h): 12.4 s
Plat (9 h): 121.3 x10_4/uL
RBC (9 h): 638.4 x10_4/ul
Ret (9 h): 8.2%
WBC (9 h): 86.5 x10_2/uL
KIDNEY_L (9 h): 1 g
KIDNEY_R (9 h): 0.9 g
KIDNEY_TOTAL (9 h): 1.9 g
LIVER (9 h): 8.9 g
A/G (9 h): 2.3
ALP (9 h): 766.6 IU/L
ALT (9 h): 29.8 IU/L
AST (9 h): 63.4 IU/L
BUN (9 h): 13 mg/dL
CRE (9 h): 0.5 mg/dL
Ca (9 h): 10.3 mg/dL
Cl (9 h): 105.2 meq/L
DBIL (9 h): 0.07 mg/dL
GLC (9 h): 194.8 mg/dL
IP (9 h): 10.9 mg/dL
K (9 h): 4.5 meq/L
LDH (9 h): 108.8 IU/L
Na (9 h): 142.4 meq/L
PL (9 h): 122.8 mg/dL
RALB (9 h): 3.7 g/dL
TBIL (9 h): 0.3 mg/dL
TC (9 h): 68.2 mg/dL
TG (9 h): 56.6 mg/dL
TP (9 h): 5.4 g/dL
gamma-GTP (9 h): 0.6 IU/L
TERMINAL_BW (24 h): 228.7 g
APTT (24 h): 17.4 s
Bas (24 h): 0%
Eos (24 h): 1.2%
Fbg (24 h): 196.8 mg/dL
Hb (24 h): 13.2 g/dL
Ht (24 h): 39.3%
Lym (24 h): 73.8%
MCH (24 h): 22 pg
MCHC (24 h): 33.7%
MCV (24 h): 65.4 fL
Mono (24 h): 9.6%
Neu (24 h): 15.6%
PT (24 h): 12.1 s
Plat (24 h): 113.1 x10_4/uL
RBC (24 h): 601.2 x10_4/ul
Ret (24 h): 9%
WBC (24 h): 106.2 x10_2/uL
KIDNEY_L (24 h): 1 g
KIDNEY_R (24 h): 1 g
KIDNEY_TOTAL (24 h): 2 g
LIVER (24 h): 11.9 g
A/G (24 h): 2.1
ALP (24 h): 1017.4 IU/L
ALT (24 h): 36.8 IU/L
AST (24 h): 66 IU/L
BUN (24 h): 17.8 mg/dL
CRE (24 h): 0.5 mg/dL
Ca (24 h): 10.6 mg/dL
Cl (24 h): 104.8 meq/L
DBIL (24 h): 0.006 mg/dL
GLC (24 h): 196 mg/dL
IP (24 h): 7.6 mg/dL
K (24 h): 4.6 meq/L
LDH (24 h): 87.6 IU/L
Na (24 h): 140.8 meq/L
PL (24 h): 129 mg/dL
RALB (24 h): 3.7 g/dL
TBIL (24 h): 0.4 mg/dL
TC (24 h): 65.8 mg/dL
TG (24 h): 84 mg/dL
TP (24 h): 5.5 g/dL
gamma-GTP (24 h): 1 IU/L
